Experimental data taken from patent publication US20040147788A1, “Stilbene derivatives and their use as aryl hydrocarbon receptor antagonistic ligands” (priority 2002, published 2004).
“And” between values parts separate entries of the source, which are not always exact repeats. Equal entries are not always repeated.

How the values were obtained:
ER = target: T1, ER (Homo sapiens, UniProt P03372); assay: ER-mediated transactivation, ERE-driven Luciferase reporter stable cell line (MCF-7-Luc); as to ER T.A. (transcriptional activity): key: Ago: agonist; N.M.: not measurable; assay type: cell-based; settings: for ER T.A. (transcriptional activity): trans-stilbenes; for ER TA (transcriptional activity): cis-stilbenes
T1 construct: stably transfecting MCF-7 cells with the ERE-globin-tk-luc-SV-Neo plasmid; endogenous in cells; host or cells: MCF-7-Luc (MCF-7 stably transfected with ERE-globin-tk-luc-SV-Neo)
T1 sequence (P03372 1-595): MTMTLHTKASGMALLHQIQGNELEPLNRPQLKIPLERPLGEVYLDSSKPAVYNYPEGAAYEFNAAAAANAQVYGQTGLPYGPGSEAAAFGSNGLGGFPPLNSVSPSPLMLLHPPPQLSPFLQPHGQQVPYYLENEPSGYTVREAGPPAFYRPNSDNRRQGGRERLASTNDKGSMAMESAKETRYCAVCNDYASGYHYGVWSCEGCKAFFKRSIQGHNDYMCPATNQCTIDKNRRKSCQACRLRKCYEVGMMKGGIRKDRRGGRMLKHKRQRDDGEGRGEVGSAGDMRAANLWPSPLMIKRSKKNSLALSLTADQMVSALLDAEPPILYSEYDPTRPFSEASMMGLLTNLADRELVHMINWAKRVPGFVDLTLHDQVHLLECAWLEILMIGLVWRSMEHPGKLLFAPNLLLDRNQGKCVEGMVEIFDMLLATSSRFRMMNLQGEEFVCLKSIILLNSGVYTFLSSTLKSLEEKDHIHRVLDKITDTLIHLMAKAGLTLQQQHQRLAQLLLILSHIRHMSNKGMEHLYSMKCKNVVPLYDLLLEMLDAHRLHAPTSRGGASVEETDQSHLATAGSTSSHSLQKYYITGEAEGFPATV
Protocol: The human adenocarcinoma breast cell line MCF-7 was obtained from the American Tissue Culture Collection (Rockville, USA). The cells were established by stably transfecting MCF-7 cells with the ERE-globin-tk-luc-SV-Neo plasmid and thus expressed luciferase in an estrogen dependent manner MCF-7-Luc. […] Cells were incubated at 37° C. in a humidified 5% CO2 incubator. For experiments, cells were grown for 5 days in phenol red-free medium, containing 5% dextran-coated charcoal treated FCS (DCC-FCS). Medium was changed after 2 days. At day 5, cells were treated or not with compounds. Compounds were dissolved in ethanol.
For each condition, 15.103 cells were seeded per well in 12-well plates and treated, as described above, during 16 hours in a final volume of 0.5 mL. At the end of the treatment, cells were washed with PBS and lysed in 150 μl of lysis buffer (Promega, Charbonnieres, France). Luciferase activity was measured using the luciferase assay reagent (Promega), according to the manufacturer's instructions. Protein concentrations were measured using Bradford technique, to normalize the luciferase activity data. For each condition, average luciferase activity was calculated from the data of 3 independent wells.

[1] = target: T2, Aryl Hydrocarbon Receptor (AhR) (Oryctolagus cuniculus, UniProt O02747); assay: Ligand binding competition assay (Aryl Hydrocarbon Receptor), [3H]TCDD displacement; set-up: species or system female New Zealand rabbit (liver cytosol); settings: for AhR RBA (relative binding affinity): resveratrol = 1
T2 construct: from tissue; host or cells: female New Zealand rabbit liver cytosol
T2 sequence (O02747 1-847): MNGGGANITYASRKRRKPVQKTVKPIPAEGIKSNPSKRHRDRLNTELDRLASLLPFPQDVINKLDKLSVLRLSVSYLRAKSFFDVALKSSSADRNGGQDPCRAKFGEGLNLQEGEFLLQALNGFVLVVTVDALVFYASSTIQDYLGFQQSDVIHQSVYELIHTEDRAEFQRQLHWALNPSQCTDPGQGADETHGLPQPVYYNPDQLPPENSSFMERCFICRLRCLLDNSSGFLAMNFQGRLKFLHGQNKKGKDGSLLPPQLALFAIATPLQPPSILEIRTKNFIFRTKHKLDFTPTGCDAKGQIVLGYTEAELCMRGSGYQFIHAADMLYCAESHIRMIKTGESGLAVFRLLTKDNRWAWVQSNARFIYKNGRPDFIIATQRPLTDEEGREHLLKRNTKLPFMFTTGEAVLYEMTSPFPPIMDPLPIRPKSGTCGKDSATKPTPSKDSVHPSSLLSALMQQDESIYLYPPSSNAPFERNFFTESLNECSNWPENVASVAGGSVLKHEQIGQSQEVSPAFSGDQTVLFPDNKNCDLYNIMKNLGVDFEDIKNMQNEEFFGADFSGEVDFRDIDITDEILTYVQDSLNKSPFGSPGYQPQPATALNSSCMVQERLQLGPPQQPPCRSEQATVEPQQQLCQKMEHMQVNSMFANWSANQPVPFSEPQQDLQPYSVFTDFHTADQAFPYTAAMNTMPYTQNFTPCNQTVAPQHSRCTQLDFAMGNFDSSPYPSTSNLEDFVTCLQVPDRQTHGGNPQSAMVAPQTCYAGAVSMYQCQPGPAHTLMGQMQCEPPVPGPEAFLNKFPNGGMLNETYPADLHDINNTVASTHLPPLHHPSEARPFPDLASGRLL
Protocol: Ligand binding competition assay (Aryl Hydrocarbon Receptor)
Experiments were conducted exactly as previously described by Savouret et al., (3). Briefly, binding competition was performed using female New Zealand rabbit liver cytosol as the receptor source. The cytosol was prepared at 4° C. in Hepes 20 mM pH 7.6, EDTA 1.5 mM, glycerol 10%, β-mercapto-ethanol 10 mM, with Complete protease cocktail (Roche, Meylan, France) by homogenisation in a Ultra-Turax homogenizer (Bioblock Scientific, Illkirch, France) followed with 20 strokes in a Dounce Homogenizer with the tight pestle. The homogenate was centrifuged 30 min at 20,000 g. The supernatant was centrifuged at 105,000 g for 65 min. The cytosol was aliquoted, snap-frozen in liquid nitrogen and kept at −80° C. Cytosol aliquotes (4.5 ml) were thawed on ice, diluted ten-fold in Hepes 20 mM pH 7.6, 5 mM CaCl2, containing Complete protease cocktail and 10 mM mercapto-ethanol, and recentrifuged 30 min. at 105,000 g. The cleared cytosol dilution was adjusted to 0.85 mg proteins/ml. 930 μl of diluted cytosol were preincubated with the desired amounts of unlabeled competitors in ethanol solutions for 1 hour at 4° C. Subsequently, 2,3,7,8-tetrachloro (1,6-3 H) dibenzo-p-dioxin (28 Ci/mmole) was added at 0.2 nM and incubation continued for 3 hours at 4° C. Non-displaceable binding was assessed by incubating the aliquotes with 70 μl of a 2% activated charcoal suspension in Hepes 20 mM pH 7.6 for 90 minutes at 4° C., followed by centrifugation at 15,000 g for 10 minutes. 500 μl of the supernatants were counted in 5 ml of Ultima Gold cocktail (Packard, Meridien, Conn.) in a Beckman liquid scintillation Counter (45% counting efficiency). Binding competition assays were repeated at least twice for each competitor and each point was performed in triplicate.

Row | Compound | ER T.A. (transcriptional activity) (ER) | AhR RBA (relative binding affinity) ([1]; trans-stilbenes) | melting point | ER TA (transcriptional activity) (ER) | AhR RBA (relative binding affinity) ([1]; cis-stilbenes) | relative binding affinity (RBA) for AhR [1]
1 | CCCCOc1ccc(/C=C/c2cc(OC)cc(OC)c2)cc1 [Compound 4h, (E)-1-(4-butoxyphenyl)-2-(3,5-dimethoxyphenyl)-ethene] | N.M. | 8.1 | 54 to 56 °C | – | – | –
2 | CCCCOc1ccc(/C=C\c2cc(OC)cc(OC)c2)cc1 [Compound 5h, (Z)-1-(4-butoxyphenyl)-2-(3,5-dimethoxyphenyl)-ethene] | – | – | – | N.M | 3.7 | –
3 | CCOc1ccc(/C=C/c2cc(OC)cc(OC)c2)cc1 [Compound 4g, (E)-1-(4-ethoxyphenyl)-2-(3,5-dimethoxyphenyl)-ethene] | N.M. | 39.8 | 54 to 55 °C | – | – | –
4 | Fc1ccc(/C=C/c2cc(F)cc(F)c2)cc1 [Compound 4d, (E)-1-(4-fluorophenyl)-2-(3,5-difluorophenyl)-ethene] | N.M | 39.1 | 47 to 48 °C and 47 °C | – | – | –
5 | FC(F)(F)c1ccc(/C=C/c2cc(C(F)(F)F)cc(C(F)(F)F)c2)cc1 [Compound 4e, (E)-1-(4-trifluoromethylphenyl)-2-(3,5-ditrifluoromethylphenyl)-ethene] | N.M | 52.1 | 99 to 100 °C | – | – | 52.1
6 | COc1ccc(/C=C/c2cc(Cl)cc(Cl)c2)cc1 [Compound 4j, (E)-1-(4-methoxyphenyl)-2-(3,5-dichlorophenyl)-ethene] | N.M. | 112.0 | 62 to 64 °C | – | – | 112.0
7 | Clc1ccc(/C=C/c2cc(Cl)cc(Cl)c2)cc1 [Compound 4b, (E)-1-(4-chlorophenyl)-2-(3,5-dichlorophenyl)-ethene] | N.M | 130.0 | – | – | – | 130.0
8 | Clc1ccc(/C=C\c2cc(Cl)cc(Cl)c2)cc1 [Compound 5b, (Z)-1-(4-chlorophenyl)-2-(3,5-dichlorophenyl)-ethene] | – | – | – | N.M | 12.4 | –
9 | COc1ccc(/C=C/c2cc(F)cc(F)c2)cc1 [Compound 4c, (E)-1-(4-methoxyphenyl)-2-(3,5-difluorophenyl)-ethene] | N.M | 17.5 | 108 to 110 °C | – | – | –
10 | COc1ccc(/C=C/c2cc(OC)cc(OC)c2)cc1 [Compound 4a, (E)-1-(4-methoxyphenyl)-2-(3,5-dimethoxyphenyl)-ethene] | Ago | 21.0 | – | – | – | –
11 | FC(F)(F)c1ccc(/C=C/c2cc(Cl)cc(Cl)c2)cc1 [Compound 4i, (E)-1-(4-trifluoromethylphenyl)-2-(3,5-dichlorophenyl)-ethene] | N.M. | 791.0 | 98 to 100 °C | – | – | –
12 | COc1ccc(/C=C\c2cc(OC)cc(OC)c2)cc1 [Compound 5a, (Z)-1-(4-methoxyphenyl)-2-(3,5-dimethoxyphenyl)-ethene] | – | – | – | Ago | 2.1 | –
13 | COc1cc(/C=C/c2ccc(F)cc2)cc(OC)c1 [Compound 4f, (E)-1-(4-fluorophenyl)-2-(3,5-dimethoxyphenyl)-ethene] | N.M | 32.1 | – | – | – | –

The next lines start with the values.

Row | ER T.A. (transcriptional activity) (ER) | AhR RBA (relative binding affinity) ([1]; trans-stilbenes) | melting point | ER TA (transcriptional activity) (ER) | AhR RBA (relative binding affinity) ([1]; cis-stilbenes) | relative binding affinity (RBA) for AhR [1] | Compound
14 | – | – | – | N.M | 13.0 | – | COc1ccc(/C=C\c2cc(Cl)cc(Cl)c2)cc1 [Compound 5j, (Z)-1-(4-methoxyphenyl)-2-(3,5-dichlorophenyl)-ethene]
15 | – | – | – | N.M | 10.9 | – | FC(F)(F)c1ccc(/C=C\c2cc(Cl)cc(Cl)c2)cc1 [Compound 5i, (Z)-1-(4-trifluoromethylphenyl)-2-(3,5-dichlorophenyl)-ethene]
16 | – | – | – | N.M | 1.7 | – | COc1cc(/C=C\c2ccc(F)cc2)cc(OC)c1 [Compound 5f, (Z)-1-(4-fluorophenyl)-2-(3,5-dimethoxyphenyl)-ethene]
17 | – | – | – | N.M | 2.7 | – | FC(F)(F)c1ccc(/C=C\c2cc(C(F)(F)F)cc(C(F)(F)F)c2)cc1 [Compound 5e, (Z)-1-(4-trifluoromethylphenyl)-2-(3,5-ditrifluoromethylphenyl)-ethene]
18 | – | – | – | N.M | 2.5 | – | CCOc1ccc(/C=C\c2cc(OC)cc(OC)c2)cc1 [Compound 5g, (Z)-1-(4-ethoxyphenyl)-2-(3,5-dimethoxyphenyl)-ethene]
19 | – | – | – | N.M | 2.6 | – | Fc1ccc(/C=C\c2cc(F)cc(F)c2)cc1 [Compound 5d, (Z)-1-(4-fluorophenyl)-2-(3,5-difluorophenyl)-ethene]
20 | – | – | – | N.M | 7.2 | – | COc1ccc(/C=C\c2cc(F)cc(F)c2)cc1 [Compound 5c, (Z)-1-(4-methoxyphenyl)-2-(3,5-difluorophenyl)-ethene]
